Test results taken from patent publication US20250324969A1.

Tests used:
[1] = system: VKPR mosquito strain (also called VKPER) of Anopheles gambiae; details: VKPR strain with mutation for knockdown resistance to pyrethroids; cited from earlier work
Aedes aegypti = details: J. Med. Entomol. 41 (4) (2004); cited from earlier work
Anopheles gambiae = details: J. Med. Entomol. 41 (4) (2004); cited from earlier work
Culex quinquefasciatus = details: J. Med. Entomol. 41 (4) (2004); cited from earlier work
[2] = system: ACE (acetylcholinesterase) of resistant mosquitoes; details: 10 microliters insecticide solution (10^-2 M), 15 min at ambient temperature, optical density over 10 min
Description: (§1) The differences in the properties of the ACE (acetylcholinesterase) between mosquitoes that have this form of resistance and sensitive mosquitoes can be detected using the following test: • Experimental protocol TESTS No.-1: Sensitive and resistant mosquitoes.
(§2) 1° the mosquito (or larva) is crushed and the crushed material is homogenized in an Eppendorf tube with a buffer solution (20 mM tris, pH 7, containing 1% of Triton X-100). After centrifugation at 10,000 g for 2 minutes, the supernatant (which contains the ACE) is collected and distributed in the wells (A) and (B) of a microplate (100 microliters in each well),
(§3) Johnson in well (B), and 10 microliters of alcohol, in well (A). The microplate is left for 15 min at ambient temperature (which is sufficient to allow the action, if any, of the insecticide),
(§4) 3°determination of the catalytic activity of the ACE (acetylcholinesterase): in each well is added 100 microliters of a solution containing acetylcholine (2.5 mM) and 0.2 mM of DTNB (dinitro-2-benzoic). The intensity of the coloration is assessed by measuring the optical density (the optical density increases based on the coloration) If the enzyme is active, the products of the hydrolysis of the acetylcholine react with the DTNB to produce a substance that features an absorption peak for the radiations of 412 nm. It is therefore possible to follow the reaction by spectrophotometry. […]

[3] = system: ACE (acetylcholinesterase) of sensitive mosquitoes; details: 10 microliters insecticide solution (10^-2 M), 15 min at ambient temperature, optical density over 10 min
Description: as §1, §2, §3, §4

In the case of `CN/C(=N/CC1CCOC1)N[N+](=O)[O-]` (stereo not drawn) [Dinotefuran], the Effect on mosquitoes [1] is listed as “lethal effect”, the Effect on mosquitoes (Aedes aegypti) is listed as “lethal effect” and the Effect on mosquitoes (Anopheles gambiae) is listed as “lethal effect”. For the same compound, the Effect on mosquitoes (Culex quinquefasciatus) was “lethal effect”.
With `CNC(=O)Oc1ccccc1OC(C)C` [Propoxur] the “Effect of the insecticide on ACE catalytic activity (evolution of the optical density, insecticide well (B) vs control well (A))” value [2] was “completely resistant” and the “Effect of the insecticide on ACE catalytic activity (evolution of the optical density, insecticide well (B) vs control well (A))” value [3] was “insufficient to prevent the Propoxur insecticide (Baygon) from working”.
